Laboratory results taken from patent US20200405687A1, “METHODS FOR THE TREATMENT OF INFECTION” (Corbus Pharmaceuticals, Inc., priority 2016, published 2020).

Columns and labels:
Pseudomonas aeruginosa [1] = assay: Pseudomonas aeruginosa agarose bead lung infection in Cftr KO and WT mice (Example 2); assay type: in vivo
Experimental: A limited number of both WT (C57BL/6J, n=5) and Cftr KO (congenic-homologous, DelF508-FABP gut corrected animals, n=5) were evaluated for safety, toxicity, and efficacy upon oral dosing of 5 mg/kg ajulemic acid BID. As controls, PA infected WT C57BL/6J and Cftr KO mice were given the 2% methylcellulose vehicle. Cftr KO and WT animals in this study were followed daily for clinical score and weights for 10 days. At Day 10, animals were euthanized and evaluated for bacteria load (colony forming units, cfus), total bronchoalveolar lavage (BAL) white blood cell counts (WBCs), and differential cell counts.
Mice were inoculated with Pseudomonas aeruginosa (PA) agaroses beads in the lungs and then treated twice daily with oral doses of ajulemic acid at 1 mg/kg and 5 mg/kg. Ajulemic acid was then administered by gavage at 1 mg/kg or 5 mg/kg dose BID in 2% methylcellulose for 10 days starting 24 hours after establishing chronic Pseudomonas aeruginosa (PA) infection. The study included 4 groups:
1) C57BL/6J+vehicle (WT DIL, n=5),
2) C57BL/6J+5 mg/kg ajulemic acid BID (WT AJ, n=5),
3) Cftr KO+vehicle (CF DIL, n=5), and
4) Cftr KO+5 mg/kg ajulemic acid BID (CF AJ, n=5),
and all animals were chronically infected with Pseudomonas aeruginosa using a standard agarose bead model.

Pseudomonas aeruginosa [2] = assay: Pseudomonas aeruginosa agarose bead lung infection in WT C57BL/6J mice (Example 1); assay type: in vivo
Experimental: Ajulemic acid (AJA) was tested in mice inoculated with Pseudomonas aeruginosa to determine its effect on treatment of infection, including the ability to promote bacterial clearance. Mice (WT, C57BL/6J) were inoculated with Pseudomonas aeruginosa agarose beads in the lungs and then treated twice daily with oral doses of ajulemic acid at 1 mg/kg and 5 mg/kg. Ajulemic acid was then administered by gavage at 1 mg/kg or 5 mg/kg dose BID in 2% methylcellulose for 10 days starting 24 hours after establishing chronic Pseudomonas aeruginosa infection. WT animals in this study were followed daily for clinical score and weights for 10 days. At Day 10, animals were euthanized and evaluated for bacteria load (colony forming units, cfus), total bronchoalveolar lavage (BAL), white blood cell counts (WBCs), and differential cell counts.
The study was conducted with 40 wild type female C57BL/6J mice. Each group of mice was inoculated with 10^5 colony forming units (CFUs) of Pseudomonas aeruginosa (PAM 5715, a CF clinical isolate). One day post infection, mice were given either 2% methylcellulose, 2% methylcellulose+1 mg/kg ajulemic acid, or 2% methylcellulose+5 mg/kg ajulemic acid BID. Animals were followed for 10 days. At day 10, animals were euthanized for BAL CFUs, differentials, total white blood cell count with fluid, and pellet saved for future studies.
Treatment and control groups include the following Pseudomonas aeruginosa infected controls treated with 2% methylcellulose, Pseudomonas aeruginosa infected animals treated with 1 mg/kg BID AJA in 2% methylcellulose, Pseudomonas aeruginosa infected animals treated with 5 mg/kg BID AJA in 2% methylcellulose, and untreated baseline controls.

Compound: CCCCCCC(C)(C)c1cc(O)c2c(c1)OC(C)(C)[C@@H]1CC=C(C(=O)O)C[C@@H]21 [ajulemic acid, (6aR,10aR)-1-hydroxy-6,6-dimethyl-3-(2-methyl-2-octanyl)-6a,7,10,10a-tetrahydro-6H-benzo[c]chromene-9-carboxylic acid]
- Survival Rate (Day 10) (Pseudomonas aeruginosa [1]; Cftr KO (CF) mice, 5 mg/kg BID oral, n=5, vehicle 3/5, 5 mg/kg): 5/5
- BAL WBC counts (Pseudomonas aeruginosa [1]; Cftr KO mice, 5 mg/kg BID): decreased BAL WBC counts
- number of alveolar macrophages (Pseudomonas aeruginosa [1]; Cftr KO mice, 5 mg/kg BID): increase the number of alveolar macrophages
- weight loss (Pseudomonas aeruginosa [1]; Cftr KO mice, 5 mg/kg BID, P<0.01): decreased weight loss
- numbers of neutrophils (Pseudomonas aeruginosa [1]; Cftr KO mice, 5 mg/kg BID, P<0.05): decreased numbers of neutrophils
- ability to resolve pulmonary infection as assessed by lung CFUs (Pseudomonas aeruginosa [1]; Cftr KO mice, 5 mg/kg BID, Pvariance=0.002): improved the ability of the animals to resolve pulmonary infection
- white blood cell response (Pseudomonas aeruginosa [2]; 1 mg/kg and 5 mg/kg BID oral, day 3, relative to controls infected or not infected): elevated
- weight profiles (body weight maintenance) (Pseudomonas aeruginosa [2]; 1 mg/kg or 5 mg/kg BID, 10 days): no real adverse effect
- bacterial load of Pseudomonas aeruginosa (bacterial CFUs in the lungs) (Pseudomonas aeruginosa [2]; 5 mg/kg BID oral, day 10): effective at decreasing the overall number of bacterial CFUs in the lungs
- treatment of infection compared with vehicle (Pseudomonas aeruginosa [2]; WT C57BL/6J mice): more efficient at treating infection than vehicle
- tolerability (Pseudomonas aeruginosa [2]; WT C57BL/6J mice, 1 or 5 mg/kg BID oral, 10 days): well tolerated
- white blood cells (Pseudomonas aeruginosa [2]; all groups, day 10, compared to controls): normalized
- levels of neutrophils (Pseudomonas aeruginosa [2]; all treatment groups relative to the non-treated control): elevated levels of neutrophils
- levels of lymphocytes or eosinophils (Pseudomonas aeruginosa [2]; any of the groups): no significant difference
- alveolar macrophages (Pseudomonas aeruginosa [2]; treatment groups, by day 10): increase in alveolar macrophages
- neutrophils (Pseudomonas aeruginosa [2]; treatment groups, by day 10): decreased neutrophils
